According to PMC11784145, “Efficacy and in vitro pharmacological assessment of novel N-hydroxypyridinediones as hepatitis B virus ribonuclease H inhibitors” (Antimicrobial Agents and Chemotherapy, 2024):

Assays:
[1] = test system: primary human hepatocytes (PHHs); assay: Primary human hepatocyte cytotoxicity (MTS assay); assay type: cell-based; conditions: 72 h, highest concentration tested 100 µM, mean ± SD, read-out: PHH CC50
Procedure: PHH cytotoxicity was determined by MTS assays following 72 h compound exposure, as described in Woodson et al. ([27]).

[2] = molecular target: T1, human ribonuclease H1 (huRNase H1) (Homo sapiens, UniProt O60930); assay: Human RNase H1 inhibition, fluorescent biochemical assay
T1 construct: made in house; host or cells: Escherichia coli
T1 sequence (O60930 1-286): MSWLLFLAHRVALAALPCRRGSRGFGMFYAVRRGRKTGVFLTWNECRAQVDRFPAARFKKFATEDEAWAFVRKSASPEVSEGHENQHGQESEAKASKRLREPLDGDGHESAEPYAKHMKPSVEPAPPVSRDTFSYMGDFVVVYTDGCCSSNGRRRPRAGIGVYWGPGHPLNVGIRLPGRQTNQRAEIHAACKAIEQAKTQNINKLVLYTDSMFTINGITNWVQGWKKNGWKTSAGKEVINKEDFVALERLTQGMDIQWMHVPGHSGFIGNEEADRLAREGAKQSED

CYP3A4 mRNA expression = assay: CYP3A4 induction, RT-qPCR in HepG2 cells; conditions: 10 µM, 24 or 48 h, normalized to GAPDH and DMSO
Procedure: HepG2 cells were seeded on 12-well, tissue-culture-treated plates (Sarstedt) at 2.5 × 10^5 cells/well for 24 h. Cells were treated with 10 µM compound or 1% DMSO for 48 h with replenishment at 24 h. Cells were rinsed with PBS and lysed at 0, 24, and 48 h using TRI Reagent (Sigma Aldrich). […] Cellular DNA was degraded using DNase I (Invitrogen), according to the manufacturer’s instructions.
Complementary DNA (cDNA) synthesis employed the ProtoScript II First Strand cDNA Synthesis Kit (New England Biolabs) according to the manufacturer’s instructions with an additional incubation step at 25°C for 5 min. Reverse transcriptase-qPCR (RT-qPCR) was performed using a Quantstudio 5 (Thermo Fisher) in a final reaction volume of 20 µL with 4 µL cDNA template, 2× KAPA probe force master mix (Roche), 300 nM probe, and 100 nM forward and reverse primer. CYP3A4 expression was determined by normalizing the experimental sample cycle threshold values to DMSO-treated wells. GAPDH was used as a housekeeping gene.

[3] = test system: HBV plus-polarity DNA in hepDES19 cells; assay: Effect of plasma proteins on compound potency; assay type: cell-based, hepatitis B virus; conditions: 10 µM compound, 72 h, media with BSA to 40 mg/mL versus 10% FBS (0.25 mg/mL BSA)
Procedure: HBV plus-polarity DNA suppression was assessed in hepDES19 cells following compound treatment for 72 h. Cells incubated with compound (10 µM) in either normal tissue culture media conditions containing 10% FBS, or in media supplemented with bovine serum albumin (BSA) to 40 mg/mL. Percent inhibition was determined, as described previously ([27], [28]). The presence of increased BSA levels was determined to affect compound potency if there was a statistically significant decrease in percent HBV plus polarity DNA suppression when compared to cells treated with compound in normal media conditions. Three or more replicate assays were performed on separate days.

Which CC50 [1] does the source give for `CC(=NOCc1cccc(F)c1)c1c(C)cc(=O)n(O)c1O` [Compound 1618] here?
Its CC50 is 93.8 ± 10.7 µM.

And the “Selectivity of HBV replication inhibition over huRNase H1 (huRNase H1 IC50 versus HBV EC50)” value [2]?
Its value is “at least 10 fold”.

What about the “CYP3A4 mRNA expression increase” value (CYP3A4 mRNA expression) of the same compound?
The value was < 2 fold.

How did the “Effect of increased albumin on HBV plus polarity DNA suppression” value [3] turn out when `CC(=NOCc1ccc(F)c(F)c1)c1c(C)cc(=O)n(O)c1O` [Compound 1617] was run?
The value was “physiologically relevant”.

What about the “Selectivity of HBV replication inhibition over huRNase H1 (huRNase H1 IC50 versus HBV EC50)” value [2] of the same compound?
Its value is “at least 10 fold”.
